Results reported in patent US5049372A, “Anticancer activities in a host by increasing blood and plasma adenosine 5'-triphosphate (ATP) levels” (priority 1988, dated 1991).

Assay: Rate of extracellular ATP degradation by human blood in vitro (Table 6)
Format: in vitro ADME
Details: 1 mM, 37° C.
Procedure: *Blood (450 μl) was withdrawn into a syringe containing either 50 μ
of citratedextrose or 50 μl of heparin (100 U/ml). Whole blood was the
added to 1 mM of [^3 H]ATP in saline (25 μl) and at various time
points blood aliquots (90 μl) were removed and centrifuged. Plasma (20
μl) was withdrawn and added to 1 ml of icecold trichloroacetic acid.
Thin layer chromatography on poly(ethylene)imine cellulose was performed
according to published procedures. The rate of degradation of 1 mM of
[^3 H]ATP was linear for mouse or human blood during the initial 30
minute incubation at 37° C.

Compound: Nc1ncnc2c1ncn2[C@@H]1O[C@H](COP(=O)(O)OP(=O)(O)OP(=O)(O)O)[C@@H](O)[C@H]1O [ATP, adenosine 5'-triphosphate]
- Rate of extracellular ATP degradation (citrate): 1.75 pmol/µL/min
- Rate of extracellular ATP degradation (heparin): 4.07 pmol/µL/min
